Test results as given in US20130090381A1, “PYRETHRINOID-TYPE ESTERS AS PESTICIDES” (SUMITOMO CHEMICAL COMPANY, LIMITED, priority 2010, published 2013).

Tested on: German cockroaches
Test: Knockdown test on German cockroaches by spraying an oil solution
Format: in vivo, German cockroach (Blattella germanica)
Details: 0.1% (w/v) oil solution, 1.5 ml sprayed; after 15 minutes; ten German cockroaches (5 of each male and female)
Procedure: The present invention compound (1) (0.1 parts) produced in the aforementioned Production Example was dissolved in 10 parts of isopropyl alcohol and the resulting solution was mixed with 89.9 parts of deodorized kerosine to prepare a 0.1% (w/v) oil solution.
Ten German cockroaches (5 of each male and female) were released in a test container (measuring 8.75 cm in diameter and 7.5 cm in height, bottom area covered with a 16 mesh wire netting) coated with butter at an inner wall, and the container was disposed on the bottom of a test chamber (bottom surface measuring 46 cm and 46 cm, 70 cm in height).
From 60 cm in height above the container, 1.5 ml of the oil solution of the present invention compound (1) was sprayed using a spray gun (spray pressure: 0.4 kg/cm^2). Thirty seconds after spraying, the container was removed from the test chamber. After a given time, the number of knockdowned cockroaches was counted and a knockdown rate was determined (repeated once). The knockdown rate was calculated by the following equation.
Knockdown rate (%)=(number of knockdowned cockroaches/number of test cockroaches)×100

C#CCC1=C(C)[C@@H](OC(=O)[C@@H]2[C@@H](/C=C(C#N)/C=C/C)C2(C)C)CC1=O [present invention compound (1), (S)-2-methyl-3-propynylcyclopent-2-en-4-on-1-yl=(1R)-trans-3-[(1Z,3E)-2-cyano-1,3-pentadienyl]-2,2-dimethylcyclopropane carboxylate]
knockdown rate: 100%
